Assay results from ChEMBL document CHEMBL1131648, “Derivatization of soyasapogenol A and their hepatoprotective activities” (1998).

Assays:
HepG2 [1] = experiment: Hepatoprotective activity against aflatoxin B1 (10e-5 M) induced Hep G2 cells at a dose of 10 ug/ml; format: functional, Homo sapiens
HepG2 [2] = experiment: Hepatoprotective activity against aflatoxin B1 (10e-5 M) induced Hep G2 cells at a dose of 20 ug/ml; format: functional, Homo sapiens

SMILES	Protection (HepG2 [1]) [%]	Protection (HepG2 [2]) [%]
CC1(C)C[C@H]2C3=CCC4[C@@]5(C)CC[C@H](O)[C@](C)(CO)C5CC[C@@]4(C)[C@]3(C)CC[C@@]2(C)CC1=O (stereo partly drawn)	37	–
CC1(C)C[C@H]2C3=CCC4[C@@]5(C)CC[C@H](O)[C@](C)(CO)C5CC[C@@]4(C)[C@]3(C)CC[C@@]2(C)C(=O)C1=O (stereo partly drawn)	131	–
CC1(C)C[C@H]2C3=CC[C@@H]4[C@@]5(C)CC[C@H](O)[C@](C)(CO)[C@@H]5CC[C@@]4(C)[C@]3(C)CC[C@@]2(C)[C@@H](O)[C@H]1O	8	–
CC1(C)C[C@H]2C3=CCC4[C@@]5(C)CC[C@H](O)[C@](C)(CO)C5CC[C@@]4(C)[C@]3(C)CC[C@@]2(C)C[C@H]1O (stereo partly drawn)	0	–
CC1(C)C[C@H]2C3=CC[C@@H]4[C@@]5(C)CC[C@H](O)[C@](C)(CO)[C@@H]5CC[C@@]4(C)[C@]3(C)CC[C@@]2(C)[C@H](O)[C@@H]1O [SOYASAPOGENOL A]	0	–
CC(=O)O[C@H]1[C@@H](O)[C@]2(C)CC[C@]3(C)C(=CCC4[C@@]5(C)CC[C@H](O)[C@](C)(CO)C5CC[C@]43C)[C@@H]2CC1(C)C (stereo partly drawn)	25	–
CC1(C)C[C@H]2C3=CC[C@@H]4[C@@]5(C)CC[C@H](O)[C@](C)(CO)[C@@H]5CC[C@@]4(C)[C@]3(C)CC[C@@]2(C)[C@H](O)[C@H]1O	0	–
CC(=O)OC[C@]1(C)C2CC[C@]3(C)C(CC=C4[C@@H]5CC(C)(C)[C@@H](O)[C@@H](O)[C@]5(C)CC[C@]43C)[C@@]2(C)CC[C@@H]1OC(C)=O (stereo partly drawn)	0	–
CC1(C)C[C@H]2C3=CCC4[C@@]5(C)CC[C@H](O)[C@](C)(CO)C5CC[C@@]4(C)[C@]3(C)CC[C@@]2(C)C[C@@H]1O (stereo partly drawn)	25	–
CC1(C)[C@@H](O[C@H]2O[C@H](C(=O)O)[C@@H](O)[C@H](O)[C@H]2O[C@@H]2O[C@H](C(=O)O)[C@@H](O)[C@H](O)[C@H]2O)CC[C@]2(C)[C@H]3C(=O)C=C4[C@@H]5C[C@@](C)(C(=O)O)CC[C@]5(C)CC[C@@]4(C)[C@]3(C)CC[C@@H]12 [GLYCYRRHIZIN]	–	15
CC1(C)C[C@H]2C3=CC[C@@H]4[C@@]5(C)CC[C@H](O)[C@](C)(CO)[C@@H]5CC[C@@]4(C)[C@]3(C)CC[C@@]2(C)[C@@H](O)[C@@H]1O	0	–
CC(=O)O[C@@H]1[C@H](OC(C)=O)C(C)(C)C[C@H]2C3=CCC4[C@@]5(C)CC[C@H](O)[C@](C)(CO)C5CC[C@@]4(C)[C@]3(C)CC[C@@]12C (stereo partly drawn)	0	–
CO[C@@H]1[C@H](OC)C(C)(C)C[C@H]2C3=CCC4[C@@]5(C)CC[C@H](O)[C@](C)(CO)C5CC[C@@]4(C)[C@]3(C)CC[C@@]12C (stereo partly drawn)	0	–
CO[C@@H]1[C@H](O)C(C)(C)C[C@H]2C3=CCC4[C@@]5(C)CC[C@H](O)[C@](C)(CO)C5CC[C@@]4(C)[C@]3(C)CC[C@@]12C (stereo partly drawn)	20	–
COC[C@]1(C)C2CC[C@]3(C)C(CC=C4[C@@H]5CC(C)(C)[C@@H](O)[C@@H](O)[C@]5(C)CC[C@]43C)[C@@]2(C)CC[C@@H]1OC (stereo partly drawn)	7	–
CC1(C)C[C@H]2C3=CCC4[C@@]5(C)CC[C@H](O)[C@](C)(CO)C5CC[C@@]4(C)[C@]3(C)CC[C@@]2(C)C(=O)[C@@H]1O (stereo partly drawn)	107	–
CC1(C)C[C@@H](O)[C@]2(C)CC[C@]3(C)C(=CCC4[C@@]5(C)CC[C@H](O)[C@](C)(CO)C5CC[C@]43C)[C@@H]2C1 (stereo partly drawn)	14	–
CO[C@H]1[C@@H](O)[C@]2(C)CC[C@]3(C)C(=CCC4[C@@]5(C)CC[C@H](O)[C@](C)(CO)C5CC[C@]43C)[C@@H]2CC1(C)C (stereo partly drawn)	8	–
